In patent publication US20150316548A1, “PROGRANULIN AS MARKER FOR AUTOIMMUNE DISORDERS” (UNIVERSITAET DES SAARLANDES, priority 2012, published 2015):
Entries after “also recorded” stand apart in the source; their conditions may differ.

Columns and labels:
[1] = system: phosphatase for progranulin's phosphorylated Ser81 in LCLs; assay: Phosphatase inhibitors added to cultured LCLs, progranulin isoforms read by IEF; assay type: cell-based, human
Source text: FIG. 14 a) to b): Identification of PP1 as the responsible phosphatase. a) Phosphatase inhibitors at specific concentrations or DMSO only as control were administrated for three days to cultured LCLs derived from a healthy donor and from a patient with hyperphosphorylated progranulin. Subsequently LCL lysates were subjected to IEF. Lanes (1) and (4) show the IEF of the LCL from a healthy control and a progranulin-antibody positive patient cultured without phosphatase inhibitors. […] The further lanes show the administration of following phosphatase inhibitors to LCL-lysates from healthy controls (top) and from progranulin-antibody positive patients (bottom): 1) DMSO, 2) of serine/threonine inhibitor cocktail 1, 3) of NIPP1 at 10 pM, 4) of okadaic acid at 10 nM, 5) of okadaic acid at 0.1 nM and of okadaic acid at 500 nM.
(§1) Isoelectric focusing was performed as described before. In short, whole blood cell extracts or extracts of LCLs were washed and treated with lysis buffer (8 M urea, 0.1 M NaH2PO4, 0.01 M Tris HCl, 0.1% NP40). Following to this, isoelectric focusing was performed (pH 3-10, Invitrogen) according to the manufacturer's protocol (1 hour 100 V, 1 hour 200 V, and 30 minutes 500 V). After semi-dry blotting on PVDF membranes (450 mA, 24V, 1 hour), patient's plasma was used for immunodetection of progranulin from whole blood cell lysates and murine anti-FLAG antibody (Sigma) was used at a dilution of 1:2,000 for immunodetection of progranulin from LCL lysates. These LCLs had been previously transfected with FLAG-tagged progranulin in pRTS. The membrane was blocked in TST/milk buffer (10% milk in 10 mM Tris/HCl, pH 7.5, 150 mM NaCl, 0.1% [v/v] Tween 20) overnight, washed, and incubated for 1 hour with plasma in TST or murine anti-FLAG-antibody. After 3 washings in TST, the membranes were incubated for 1 hour at room temperature with PDX-labeled goat anti-human IgG Ab (Dianova) diluted 1:5,000 or PDX-labeled anti-mouse IgG Ab (Biorad) in TST, subsequently washed in TST followed by ECL development. To perform IEF on different cell fractions, PBMCs and granulocytes were isolated by density double gradient centrifugation (Histopaque-1077 and -1119, Sigma). Monocytes, B-cells and T-cells were sorted with CD14, CD19 and CD3. Mucosa cells were obtained by swab from the oral cavities of patients and controls.
To identify the responsible phosphatase for progranulin's phosphorylated Ser81 a panel of different phosphatase inhibitors was administered at specific concentrations to the cultured LCLs, which had been obtained from progranulin-antibody positive patients and from healthy controls with the aim to inhibit particular groups of phosphatases. This panel consisted of serine/threonine phosphatase inhibitor cocktail, tyrosine phosphatase inhibitor, okadaic acid at 500 nM, 10 nM, 0.1 nM and NIPP1 at 10 pM. Following to this, IEFs of the lysates of these LCLs were performed to check for possible differences in the phosphorylation state.

[2] = system: hyperphosphorylated progranulin isoform; assay: Treatment of sera / cell lysates with alkaline phosphatase before IEF; assay type: biochemical, human; conditions: samples of progranulin-antibody positive patients
Description: Treatment of whole blood cell lysates or LCL lysates with alkaline phosphatase was conducted in principal as previously described. FastAP thermo sensitive alkaline phosphatase (Fermentas) was used. In short LCLs were washed 3 times with PBS. The lysis was performed in a buffer of 10 mM Tris HCl pH 8 for 1 h at 4° C. Following to this the supplied FastAP-Buffer (10×Fast AP-Buffer: 100 mM Tris-HCl, pH 8.0, 50 mM MgCl2, 1 M KCl, 0.2% Triton X-100 and 1 mg/ml BSA) was added to the cell lysate. For 0.1 mg/ml lysed protein extract, 10 units of FastAP were utilized. After 1 h at 37° C., the alkaline phosphatase reaction was stopped by the addition of 50 mM EDTA. Equal volumes of sample and loading buffer were mixed, followed by IEF and immuno-detection.

[3] = system: hyperphosphorylation of progranulin at Ser81 in lymphoblastoid cell lines (LCL); assay: Kinase inhibitors added to cultured lymphoblastoid cell lines (LCL), progranulin isoforms read by IEF and immunoblot; assay type: cell-based, human; conditions: for hyperphosphorylated progranulin isoform in IEF: LCL culture
Description: Lymphoblastoid cell lines (LCLs) were established by infection of PBMCs with EBV as described before.
as §1
Stable transfected lymphoblastoid cell lines were cultured at 2×10e6 cells/ml in the presence of selected inhibitory compounds as indicated to narrow down the number of candidate kinases responsible for hyperphosphorylation at Ser81. […] After 3 days, cells were removed and analyzed by isoelectric focusing (IEF) and immunoblot detection. After the identification of PKC as the responsible kinase for the phosphorylation of serine 81, the same procedure was repeated with other selected inhibitory compounds to identify the subclass of PKC. The selected inhibitory compounds for the identification of the PKC subunit were: Staurosporin at […], 15 nM and 30 nM. Bisindolylmaleimide I (BIM I) at 1 nM, 5 nM, 10 nM and 20 nM, Rottlerin at 5 μM, 10 μM, 40 μM and 100 μM and the PKCβ-inhibitor at a concentration of 5 nm specifically for PKCβ-II and at a concentration of 21 nm for PKCβ-I and PKCβ-II.

[4] = in vivo; cited from earlier work

C=C1[C@@H](O)[C@@H]2O[C@]3(CC[C@H](/C=C/[C@@H](C)[C@@H]4CC(C)=C[C@@]5(O[C@H](C[C@@](C)(O)C(=O)O)CC[C@H]5O)O4)O3)CC[C@H]2O[C@@H]1[C@@H](O)C[C@H](C)[C@H]1O[C@@]2(CCCCO2)CC[C@H]1C [okadaic acid]
normal and hyperphosphorylated progranulin isoforms in IEF ([1]; 0.1 nM (specific for PP2A), listed as ocadaic acid): didn't change the phosphorylation state | normal and hyperphosphorylated progranulin isoforms in IEF ([1]; 10 nM (specific for PP1)): led to the appearance of the hyperphosphorylated progranulin isoform and the disappearance of the normal progranulin isoform | normal and hyperphosphorylated progranulin isoforms in IEF ([1]; 10 nM (specific for PP1), listed as Ocadaic acid): led to the appearance of the hyperphosphorylated progranulin isoform | normal and hyperphosphorylated progranulin isoforms in IEF ([1]; 500 nM (0.5 μM)): led to the appearance of the hyperphosphorylated progranulin isoform and the disappearance of the normal progranulin isoform | normal and hyperphosphorylated progranulin isoforms in IEF ([1]; 500 nM (0.5 μM), listed as Ocadaic acid): led to the appearance of the hyperphosphorylated progranulin isoform

alkaline phosphatase
additional (aberrantly charged) progranulin isoform in IEF after pretreatment [2]: disappearance of the additional progranulin isoform; also recorded: had lost the aberrantly charged progranulin isoform

CC(=O)c1c(O)c(C)c(O)c(Cc2c(O)c3c(c(C(=O)/C=C/c4ccccc4)c2O)OC(C)(C)C=C3)c1O [Rottlerin]
hyperphosphorylated progranulin isoform in IEF ([3]; inhibitor at 5 μM): could not inhibit the phosphorylation of Ser81 | hyperphosphorylated progranulin isoform in IEF ([3]; inhibitor at 10 μM): could not inhibit the phosphorylation of Ser81 | hyperphosphorylated progranulin isoform in IEF ([3]; inhibitor at 40 μM): could not inhibit the phosphorylation of Ser81 | hyperphosphorylated progranulin isoform in IEF ([3]; inhibitor at 100 μM): could not inhibit the phosphorylation of Ser81 | hyperphosphorylated progranulin isoform in IEF ([3]; inhibitor at different concentrations): not possible to inhibit the responsible kinase

O=c1oc2c(O)c(O)cc3c(=O)oc4c(O)c(O)cc1c4c23 [Ellagic Acid]
electrical charge of the normal progranulin isoform in IEF ([3]; 10 pM, LCL of progranulin-antibody positive patients and of healthy controls): slight shift of the band of the normal progranulin isoform towards an electronically less negatively charged isoform | electrical charge of the normal progranulin isoform in IEF ([3]; 50 μM, LCL of a healthy control): change in the electrical charge of “normal” progranulin appeared as well | electrical charge of the normal progranulin isoform in IEF ([3]; 50 μM, LCL of a progranulin-antibody positive patient): change in the electrical charge | hyperphosphorylated progranulin isoform in IEF ([3]; inhibitor at 50 μM): disappearance of the hyperphosphorylated progranulin isoform

O=C1NC(=O)C(c2cn(CCCn3ccnc3)c3ccccc23)=C1Nc1ccccc1 [PKCβ-inhibitor]
hyperphosphorylated progranulin isoform in IEF ([3]; inhibitor at 21 nM): led to the disappearance of the hyperphosphorylated isoform

TNF-α
half-life [4]: about 20 min

CN(C)CCCn1cc(C2=C(c3c[nH]c4ccccc34)C(=O)NC2=O)c2ccccc21 [Bisindolylmaleimide I]
hyperphosphorylated progranulin isoform in IEF ([3]; inhibitor at 1 nM): didn't inhibit the hyperphosphorylation | hyperphosphorylated progranulin isoform in IEF ([3]; inhibitor at 5 nM): didn't inhibit the hyperphosphorylation | hyperphosphorylated progranulin isoform in IEF ([3]; inhibitor at 10 nM): didn't inhibit the hyperphosphorylation | hyperphosphorylated progranulin isoform in IEF ([3]; inhibitor at 20 nM): the hyper-phosphorylated isoform disappeared | hyperphosphorylated progranulin isoform in IEF ([3]; inhibitor at 20 nM, listed as Bis-indolyl-maleimide I): led to the disappearance of the hyperphosphorylated isoform

CN[C@@H]1C[C@H]2O[C@@](C)([C@@H]1OC)n1c3ccccc3c3c4c(c5c6ccccc6n2c5c31)C(=O)NC4 [Staurosporin]
electrical charge of the normal progranulin isoform in IEF ([3]; 2.5 pM, LCL of progranulin-antibody positive patients and of healthy controls): slight shift of the band of the normal progranulin isoform towards an electronically less negatively charged isoform | electrical charge of the normal progranulin isoform in IEF ([3]; 5 pM, LCL of progranulin-antibody positive patients and of healthy controls): slight shift of the band of the normal progranulin isoform towards an electronically less negatively charged isoform | electrical charge of the normal progranulin isoform in IEF ([3]; 2.5 μM, LCL of a healthy control): change in the electrical charge of “normal” progranulin appeared as well | electrical charge of the normal progranulin isoform in IEF ([3]; 2.5 μM, LCL of a progranulin-antibody positive patient): change in the electrical charge | electrical charge of the normal progranulin isoform in IEF ([3]; 5 μM, LCL of a healthy control): change in the electrical charge of “normal” progranulin appeared as well | electrical charge of the normal progranulin isoform in IEF ([3]; 5 μM, LCL of a progranulin-antibody positive patient): change in the electrical charge | hyperphosphorylated progranulin isoform in IEF ([3]; inhibitor at 10 nM): led only to the disappearance of the hyperphosphorylated progranulin isoform | hyperphosphorylated progranulin isoform in IEF ([3]; inhibitor at 15 nM): wasn't detectable | hyperphosphorylated progranulin isoform in IEF ([3]; inhibitor at 30 nM): wasn't detectable; also recorded: led only to the disappearance of the hyperphosphorylated progranulin isoform | hyperphosphorylated progranulin isoform in IEF ([3]; inhibitor at 2.5 μM): disappearance of the hyperphosphorylated progranulin isoform | hyperphosphorylated progranulin isoform in IEF ([3]; inhibitor at 5 μM): disappearance of the hyperphosphorylated progranulin isoform

B1: NIPP1: phosphatase inhibitor, at 10 pM specific for PP1 (protein, UniProt Q12972 1-351, looked up)
Nuclear inhibitor of protein …: MAAAANSGSSLPLFDCPTWAGKPPPGLHLDVVKGDKLIEKLIIDEKKYYLFGRNPDLCDFTIDHQSCSRVHAALVYHKHLKRVFLIDLNSTHGTFLGHIRLEPHKPQQIPIDSTVSFGASTRAYTLREKPQTLPSAVKGDEKMGGEDDELKGLLGLPEEETELDNLTEFNTAHNKRISTLTIEEGNLDIQRPKRKRKNSRVTFSEDDEIINPEDVDPSVGRFRNMVQTAVVPVKKKRVEGPGSLGLEESGSRRMQNFAFSGGLYGGLPPTHSEAGSQPHGIHGTALIGGLPMPYPNLAPDVDLTPVVPSAVNMNPAPNPAVYNPEAVNEPKKKKYAKEAWPGKKPTPSLLI
normal and hyperphosphorylated progranulin isoforms in IEF ([1]; 10 pM (specific for PP1)): led to the appearance of the hyperphosphorylated progranulin isoform and the disappearance of the normal progranulin isoform
